Three compounds from publication PMC11284788, “NN1213 – A Potent, Long-Acting, and Selective Analog of Human Amylin” (Journal of Medicinal Chemistry, 2024) can be followed below.

pEC50: −log10 of the molar value. Converted amounts (≈) assume the structure as drawn. Where two headings read alike, the source gives them in different places. Numbered stars: 1 amine (or outer) side, 2 acyl side, 3 side chain; on linkers, the order of the positions; unused ones are H or OH. Bridge positions count the residues as written; N and C are the ends. Side chains are listed from the residue outwards. Peptide text beside a SMILES is read from it. * marks the point of attachment. C20 diacid = O=C(O)CCCCCCCCCCCCCCCCCCC(=O)*; γGlu = O=C(O)[C@H](CCC(=O)[*:2])N[*:1]

One data set concerns the target T1, hCTR (Homo sapiens, UniProt P30988).
T1 sequence (P30988 25-474): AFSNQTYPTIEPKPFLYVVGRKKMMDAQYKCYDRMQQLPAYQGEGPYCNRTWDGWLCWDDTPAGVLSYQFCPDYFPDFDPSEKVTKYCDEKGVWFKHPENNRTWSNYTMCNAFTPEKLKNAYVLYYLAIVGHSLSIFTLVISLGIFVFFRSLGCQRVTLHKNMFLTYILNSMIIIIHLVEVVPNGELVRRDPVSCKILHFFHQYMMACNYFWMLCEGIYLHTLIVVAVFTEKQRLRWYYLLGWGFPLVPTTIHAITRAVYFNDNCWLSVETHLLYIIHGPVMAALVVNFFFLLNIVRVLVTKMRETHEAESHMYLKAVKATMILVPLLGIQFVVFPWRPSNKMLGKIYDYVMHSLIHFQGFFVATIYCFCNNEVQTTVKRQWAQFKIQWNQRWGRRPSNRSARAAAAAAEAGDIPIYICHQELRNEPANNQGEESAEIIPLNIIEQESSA
The data set can be described thus: cAMP-responsive element luciferase reporter assay, human CTR. Format: cell-based. The conditions noted are these: luciferase (human receptor assay); for EC50: Tables S12 and S14, read-out: hCTR pEC50 (converted); for pEC50: BHK cells stably expressing hCTR and CRE-luciferase, 3 h, 37 °C, 10% FBS, read-out: hCTR EC50.

A short description of data set [1]: ThT assay: fibril formation propensity and peptide recovery. The conditions noted are these: for ThT, pH 7.5 lag-time: 250 μM peptide, 10 mM HEPES pH 7.5, 1 μM ThT, 37 °C, 960 rpm, 45 h, lowest of four replicas, average of experiments; for recovery: pH 7.5, residual dissolved peptide after 45 h of shaking, centrifugation and 0.22 μm filtration, HPLC, relative to amount before stress. The class given is physicochemical. The protocol: The stability properties of the individual amylin analogs were assessed with respect to their propensity toward fibril formation, expressed as the time until fibril formation (measured as Lag time) and loss of dissolved peptide (assessed as Peptide Recovery). […] Samples were prepared as described previously (using the same methodology and materials) for a novel amylin-based analog candidate compound.[7]
Briefly, each compound was dissolved in 10 mM of glycylglycine buffer (pH 4.0) or HEPES buffer (pH 7.5) to a concentration of 250 μM, followed by ThT stock solution to a final concentration of 1 μM. Each solution was aliquoted into a microtiter plate (200 μL/well) sealed with a transparent adhesive sheet. Mechanical stress was applied at 37 °C incubation (960 rpm, 1 mm amplitude) with 20 min fluorescence reading intervals for 45 h (filters: excitation 444 nm; emission 485 nm). Each peptide was tested in experiments consisting of four replicas (e.g., four wells on the same plate), and the lag time of each replica was determined by visual inspection of the fluorescence-versus-time plot. For wells where no fibril formation could be detected, the lag time was set longer than the test period (>45 h). The lag time of the peptide was set to the lowest lag time of the four replicates (conservative estimate). Some of the peptides were tested in more than one experiment, and the lag time results given in Tables 6 and 9 represent the average of these experiments. The ThT time course data given in Supporting Information represent the average and SEM of each experiment.[40] After analysis, wells representing individual replicas were pooled, and the residual soluble peptide was isolated using centrifugation (20,000 g/30 min at room temperature) followed by […] filtration. The amount of residual dissolved peptide was determined using an HPLC with a flow rate of 2 mL/min at 30 °C and 215/276 nm detection. A gradient combining eluent A (7.7% w/w acetonitrile, 200 mM Na2SO4, 20 mM NaH2PO4, 20 mM Na2HPO4, pH 7.2) and eluent B (65.5% w/w acetonitrile) was applied. The amount of residual dissolved peptide was reported on a relative scale (Peptide Recovery) to the amount of dissolved peptide prior to mechanical stress.

Data set [2] is described as follows: HMWP content by size-exclusion chromatography. The class given is physicochemical. The conditions noted are these: analogs 1–9 (pH 7.5 series); covalent dimers and polymers prior to fibril formation testing, SEC, % of total absorbance area at 215 nm. As to the method:
The stability properties of the individual amylin analogs were assessed with respect to their propensity toward amyloid fibril formation. The relative amount of covalent dimers and polymers (HMWP) present prior to fibril formation testing was measured as a control for the potential inhibitory effect of HMWP on fibril formation propensity as reported elsewhere.[39]
Elution was performed under isocratic conditions with the following mobile phase prepared in Milli-Q water (Millipore A/S): 0.5 M NaCl, 10 mM sodium dihydrogen monohydrate, 5 mM ortho-phosphoric acid, 50% (v/v) 2-propanol. The amount of HMWP was determined as the absorbance area of the corresponding peaks given in percentage of the total absorbance area. The molar extinction coefficients of the molecules eluting in the HMWP fraction and the main peak was assumed to be equal.
On the technique in general: SEC sorts molecules by how far they enter the pores of the column.

In a further data set the target is T2, hAMY3R (Homo sapiens, UniProt O60896+P30988).
T2 sequence (P30988 25-474): T1 sequence (P30988 25-474)
T2 sequence (O60896 24-148 partner): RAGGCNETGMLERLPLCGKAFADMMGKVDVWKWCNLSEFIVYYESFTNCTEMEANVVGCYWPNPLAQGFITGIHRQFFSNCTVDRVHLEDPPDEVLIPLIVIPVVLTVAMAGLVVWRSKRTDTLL
The data set can be described thus: cAMP-responsive element luciferase reporter assay, human AMY3R. The class given is cell-based. Details: expressed in transfected cells. The conditions noted are these: for EC50 / pEC50: luciferase (human receptor assay); for EC50: Tables S12 and S14, read-out: hAMY3R pEC50 (converted); for pEC50: BHK cells stably expressing hCTR+RAMP3 and CRE-luciferase, 3 h, 37 °C, 10% FBS, read-out: hAMY3R EC50; for ratio hCTR/hAMY3R: ratio of luciferase EC50 values. On the technique in general: A reporter such as luciferase makes a cellular process visible.

A short description of data set [3]: Solubility versus pH profile.

By pEC50 is commonly meant −log10 of the EC50, conventionally taken in molar units. Take `CC[C@H](C)[C@H](NC(=O)[C@@H]1CCCN1C(=O)CNC(=O)[C@H](Cc1ccccc1)NC(=O)[C@H](CC(N)=O)NC(=O)[C@H](CCC(=O)O)NC(=O)[C@H](CO)NC(=O)[C@H](CO)NC(=O)[C@H](Cc1c[nH]cn1)NC(=O)[C@H](CCCNC(=N)N)NC(=O)[C@H](CC(C)C)NC(=O)[C@H](Cc1ccccc1)NC(=O)[C@H](CC(=O)O)NC(=O)[C@H](C)NC(=O)[C@H](CC(C)C)NC(=O)[C@H](CCCNC(=N)N)NC(=O)[C@H](CCC(N)=O)NC(=O)[C@@H](NC(=O)[C@H](C)NC(=O)[C@@H]1CSSC[C@H](NC(=O)[C@@H](N)CCCCNC(=O)CC[C@H](NC(=O)CC[C@H](NC(=O)CCCCCCCCCCCCCCCCCCC(=O)O)C(=O)O)C(=O)O)C(=O)N[C@@H](CC(N)=O)C(=O)N[C@@H]([C@@H](C)O)C(=O)N[C@@H](C)C(=O)N[C@@H]([C@@H](C)O)C(=O)N1)[C@@H](C)O)C(=O)N[C@@H](CC(C)C)C(=O)N[C@@H](CO)C(=O)N[C@@H](CO)C(=O)N[C@H](C(=O)N1CCC[C@H]1C(=O)N[C@H](C(=O)NCC(=O)N[C@@H](CO)C(=O)N[C@@H](CC(=O)O)C(=O)N[C@H](C(=O)N[C@@H](Cc1ccc(O)cc1)C(N)=O)[C@@H](C)O)C(C)C)[C@@H](C)O` [Peptide 9] (H-K([γGlu-γGlu-C20 diacid])CNTATCATQRLADFLRHSSENFGPILSSTPVGSDTY-NH2; disulfide 2-7): on hCTR, the EC50 was 8.32 nM and the pEC50 was 8.08. Moreover, in data set [1], the “ThT, pH 7.5 lag-time” value was >45 h and the recovery was 100%. For the same compound, the HMWP in data set [2] came out at 6%. Moreover, on hAMY3R, the EC50 is 1.07 nM, the pEC50 was 8.97 and the “ratio hCTR/hAMY3R” value was 7.8.

In general, kinetic solubility refers to solubility judged after dilution from a stock solution rather than from solid. On to `CC(C)C[C@H](NC(=O)[C@H](CCCNC(=N)N)NC(=O)[C@H](CCC(N)=O)NC(=O)[C@@H](NC(=O)[C@H](C)NC(=O)[C@@H]1CSSC[C@H](NC(=O)[C@@H](N)CCCCNC(=O)CC[C@H](NC(=O)CCCCCCCCCCCCCCCCCCC(=O)O)C(=O)O)C(=O)N[C@@H](CC(N)=O)C(=O)N[C@@H]([C@@H](C)O)C(=O)N[C@@H](C)C(=O)N[C@@H]([C@@H](C)O)C(=O)N1)[C@@H](C)O)C(=O)N[C@@H](C)C(=O)N[C@@H](CC(=O)O)C(=O)N[C@@H](Cc1ccccc1)C(=O)N[C@@H](CC(C)C)C(=O)N[C@@H](CCCNC(=N)N)C(=O)N[C@@H](Cc1c[nH]cn1)C(=O)N[C@@H](CO)C(=O)N[C@@H](CO)C(=O)N[C@@H](CCC(N)=O)C(=O)N[C@@H](CC(N)=O)C(=O)N[C@@H](Cc1ccccc1)C(=O)NCC(=O)N[C@@H](C)C(=O)N1CCC[C@H]1C(=O)N[C@@H](CC(C)C)C(=O)N[C@@H](CO)C(=O)N[C@@H](CO)C(=O)N[C@H](C(=O)N[C@@H](CC(N)=O)C(=O)N[C@H](C(=O)NCC(=O)N[C@@H](CO)C(=O)N1CCC[C@H]1C(=O)N[C@H](C(=O)N[C@@H](Cc1ccc(O)cc1)C(N)=O)[C@@H](C)O)C(C)C)[C@@H](C)O` [Peptide 2] (H-K([γGlu-C20 diacid])CNTATCATQRLADFLRHSSQNFGAPLSSTNVGSPTY-NH2; disulfide 2-7), for which the figures for the EC50 at hCTR and at hAMY3R were 1.38 nM and 1.55 nM, respectively. In addition, the values for the pEC50 on hCTR and at hAMY3R were 8.86 and 8.81, respectively. Also, the kinetic solubility in data set [3] (bis-tris-propane buffer, pH 6, aqueous buffer) is ≥ 200 µM; in data set [3] (bis-tris-propane buffer, pH 6.5, aqueous buffer), 75 µM (≈ 330 µg/mL); in data set [3] (bis-tris-propane buffer, pH 7, aqueous buffer) it was 7 µM (≈ 30.8 µg/mL); in data set [3] (bis-tris-propane buffer, pH 7.5, aqueous buffer) it was 7 µM (≈ 30.8 µg/mL); in data set [3] (bis-tris-propane buffer, pH 8, aqueous buffer) it was 15 µM (≈ 65.9 µg/mL); in data set [3] (lactate buffer, pH 4, aqueous buffer), ≥ 200 µM. Further, the kinetic solubility in data set [3] (lactate buffer, pH 5, aqueous buffer) was ≥ 200 µM. The “ThT, pH 7.5 lag-time” value in data set [1] was 0 h. In data set [1], this compound returned a recovery of 0%. For the same compound, the “ratio hCTR/hAMY3R” value on hAMY3R was determined as 0.9.

As to `CC[C@H](C)[C@H](NC(=O)[C@H](C)NC(=O)CNC(=O)[C@H](Cc1ccccc1)NC(=O)[C@@H]1CCCN1C(=O)[C@H](CC(N)=O)NC(=O)[C@H](CO)NC(=O)[C@H](CO)NC(=O)[C@H](Cc1c[nH]cn1)NC(=O)[C@H](CCCNC(=N)N)NC(=O)[C@H](CC(C)C)NC(=O)[C@H](Cc1ccccc1)NC(=O)[C@H](CC(=O)O)NC(=O)[C@H](C)NC(=O)[C@H](CC(C)C)NC(=O)[C@H](CCCNC(=N)N)NC(=O)[C@H](CCC(N)=O)NC(=O)[C@@H](NC(=O)[C@H](C)NC(=O)[C@@H]1CSSC[C@H](NC(=O)[C@@H](N)CCCCNC(=O)CC[C@H](NC(=O)CC[C@H](NC(=O)CCCCCCCCCCCCCCCCCCC(=O)O)C(=O)O)C(=O)O)C(=O)N[C@@H](CC(N)=O)C(=O)N[C@@H]([C@@H](C)O)C(=O)N[C@@H](C)C(=O)N[C@@H]([C@@H](C)O)C(=O)N1)[C@@H](C)O)C(=O)N1CCC[C@H]1C(=O)N[C@@H](CO)C(=O)N[C@@H](CO)C(=O)N[C@H](C(=O)N[C@@H](CC(N)=O)C(=O)N[C@H](C(=O)NCC(=O)N[C@@H](CO)C(=O)N[C@@H](CC(=O)O)C(=O)N[C@H](C(=O)N[C@@H](Cc1ccc(O)cc1)C(N)=O)[C@@H](C)O)C(C)C)[C@@H](C)O` [Peptide 8] (H-K([γGlu-γGlu-C20 diacid])CNTATCATQRLADFLRHSSNPFGAIPSSTNVGSDTY-NH2; disulfide 2-7), on hCTR, the EC50 is 2.19 nM and the pEC50 is 8.66. Besides, in data set [1], the “ThT, pH 7.5 lag-time” value was >45 h and the recovery worked out at 100%. For the same compound, the HMWP in data set [2] came out at 2.5%. Also, on hAMY3R, the EC50 is 0.389 nM, the pEC50 is 9.41 and the “ratio hCTR/hAMY3R” value is listed as 5.6.
